Source: the NIST ThermoML archive (doi:10.1021/acs.jced.5b00934)
Numbers after ± are expanded uncertainties.

Settings: Liquid, Vibrating tube method

CCC(C)O (configuration not stated) [butan-2-ol]
Settings | mass density [kg/m3]
283.15 K, 99 kPa | 814.7 ± 0.8
283.15 K, 306 kPa | 814.8 ± 0.8
283.15 K, 529 kPa | 815 ± 0.8
283.15 K, 909 kPa | 815.3 ± 0.8
283.15 K, 1030 kPa | 815.4 ± 0.8
283.15 K, 2005 kPa | 816.1 ± 0.8
283.15 K, 2987 kPa | 816.8 ± 0.8
283.15 K, 4975 kPa | 818.2 ± 0.8
283.15 K, 6996 kPa | 819.6 ± 0.8
283.15 K, 9019 kPa | 821 ± 0.8
283.15 K, 10037 kPa | 821.7 ± 0.8
283.15 K, 12013 kPa | 823 ± 0.9
283.15 K, 14917 kPa | 824.9 ± 0.9
283.15 K, 17956 kPa | 826.9 ± 0.9
283.15 K, 20028 kPa | 828.2 ± 0.9
283.15 K, 21997 kPa | 829.4 ± 0.9
283.15 K, 24984 kPa | 831.2 ± 0.9
283.15 K, 27996 kPa | 833 ± 0.9
283.15 K, 29889 kPa | 834.1 ± 0.9
283.15 K, 31914 kPa | 835.3 ± 0.9
283.15 K, 33047 kPa | 835.9 ± 0.9
283.15 K, 33065 kPa | 835.9 ± 0.9
283.15 K, 34001 kPa | 836.4 ± 0.9
283.15 K, 34979 kPa | 836.9 ± 0.9
283.15 K, 40002 kPa | 839.7 ± 0.9
283.15 K, 42074 kPa | 840.9 ± 0.9
283.15 K, 44993 kPa | 842.4 ± 0.9
283.15 K, 48024 kPa | 844 ± 0.9
283.15 K, 50047 kPa | 845.1 ± 0.9
283.15 K, 52032 kPa | 846.1 ± 0.9
283.15 K, 55041 kPa | 847.6 ± 0.9
283.15 K, 57909 kPa | 849.1 ± 1
283.15 K, 60034 kPa | 850.1 ± 1
283.15 K, 62037 kPa | 851.1 ± 1
283.15 K, 65102 kPa | 852.6 ± 1
283.15 K, 66079 kPa | 853 ± 1
283.16 K, 37912 kPa | 838.6 ± 0.9
288.15 K, 99 kPa | 810.8 ± 0.8
288.15 K, 298 kPa | 811 ± 0.8
288.15 K, 511 kPa | 811.1 ± 0.8
288.15 K, 912 kPa | 811.4 ± 0.8
288.15 K, 993 kPa | 811.5 ± 0.8
288.15 K, 2048 kPa | 812.3 ± 0.8
288.15 K, 3020 kPa | 813 ± 0.8
288.15 K, 5097 kPa | 814.5 ± 0.8
288.15 K, 10002 kPa | 818 ± 0.8
288.15 K, 11924 kPa | 819.3 ± 0.9
288.15 K, 15086 kPa | 821.4 ± 0.9
288.15 K, 17992 kPa | 823.4 ± 0.9
288.15 K, 19982 kPa | 824.6 ± 0.9
288.15 K, 21991 kPa | 825.9 ± 0.9
288.15 K, 25200 kPa | 827.9 ± 0.9
288.15 K, 28149 kPa | 829.7 ± 0.9
288.15 K, 30056 kPa | 830.8 ± 0.9
288.15 K, 32010 kPa | 832 ± 0.9
288.15 K, 32915 kPa | 832.4 ± 0.9
288.15 K, 32978 kPa | 832.5 ± 0.9
288.15 K, 33919 kPa | 833 ± 0.9
288.15 K, 37967 kPa | 835.3 ± 0.9
288.15 K, 40071 kPa | 836.5 ± 0.9
288.15 K, 42013 kPa | 837.6 ± 0.9
288.15 K, 45099 kPa | 839.3 ± 0.9
288.15 K, 47977 kPa | 840.8 ± 0.9
288.15 K, 51983 kPa | 842.9 ± 0.9
288.15 K, 57976 kPa | 846 ± 1
288.15 K, 62043 kPa | 848 ± 1
288.15 K, 64998 kPa | 849.5 ± 1
288.15 K, 66143 kPa | 850 ± 1
288.16 K, 6990 kPa | 815.8 ± 0.8
288.16 K, 9100 kPa | 817.3 ± 0.8
288.16 K, 35048 kPa | 833.7 ± 0.9
288.16 K, 50052 kPa | 842 ± 0.9
288.16 K, 54961 kPa | 844.5 ± 1
288.16 K, 59961 kPa | 847 ± 1
293.15 K, 99 kPa | 806.7 ± 0.8
293.15 K, 891 kPa | 807.3 ± 0.8
293.15 K, 10027 kPa | 814.1 ± 0.8
293.15 K, 12006 kPa | 815.5 ± 0.9
293.15 K, 14925 kPa | 817.5 ± 0.9
293.15 K, 22039 kPa | 822.3 ± 0.9
293.15 K, 24969 kPa | 824.2 ± 0.9
293.15 K, 28001 kPa | 826 ± 0.9
293.15 K, 30012 kPa | 827.2 ± 0.9
293.15 K, 31992 kPa | 828.4 ± 0.9
293.15 K, 33079 kPa | 829.1 ± 0.9
293.15 K, 34051 kPa | 829.6 ± 0.9
293.15 K, 37933 kPa | 831.9 ± 0.9
293.15 K, 40088 kPa | 833.1 ± 0.9
293.15 K, 42062 kPa | 834.2 ± 0.9
293.15 K, 45052 kPa | 835.9 ± 0.9
293.15 K, 48098 kPa | 837.6 ± 0.9
293.15 K, 50000 kPa | 838.6 ± 0.9
293.15 K, 51999 kPa | 839.7 ± 0.9
293.15 K, 55060 kPa | 841.3 ± 1
293.15 K, 58191 kPa | 842.9 ± 1
293.15 K, 62049 kPa | 844.8 ± 1
293.15 K, 64958 kPa | 846.3 ± 1
293.15 K, 66185 kPa | 846.9 ± 1
293.16 K, 304 kPa | 806.8 ± 0.8
293.16 K, 505 kPa | 807 ± 0.8
293.16 K, 1026 kPa | 807.4 ± 0.8
293.16 K, 1994 kPa | 808.2 ± 0.8
293.16 K, 3011 kPa | 808.9 ± 0.8
293.16 K, 4984 kPa | 810.4 ± 0.8
293.16 K, 7001 kPa | 811.9 ± 0.8
293.16 K, 8967 kPa | 813.4 ± 0.8
293.16 K, 17912 kPa | 819.5 ± 0.9
293.16 K, 20060 kPa | 821 ± 0.9
293.16 K, 33109 kPa | 829 ± 0.9
293.16 K, 35005 kPa | 830.2 ± 0.9
293.16 K, 60071 kPa | 843.8 ± 1
298.15 K, 96 kPa | 802.3 ± 0.8
298.15 K, 291 kPa | 802.5 ± 0.8
298.15 K, 488 kPa | 802.7 ± 0.8
298.15 K, 995 kPa | 803.1 ± 0.8
298.15 K, 2020 kPa | 803.9 ± 0.8
298.15 K, 9025 kPa | 809.3 ± 0.8
298.15 K, 10078 kPa | 810 ± 0.9
298.15 K, 17949 kPa | 815.6 ± 0.9
298.15 K, 19932 kPa | 817 ± 0.9
298.15 K, 22061 kPa | 818.4 ± 0.9
298.15 K, 24991 kPa | 820.3 ± 0.9
298.15 K, 27926 kPa | 822.2 ± 0.9
298.15 K, 30121 kPa | 823.6 ± 0.9
298.15 K, 32061 kPa | 824.8 ± 0.9
298.15 K, 33040 kPa | 825.4 ± 0.9
298.15 K, 33088 kPa | 825.4 ± 0.9
298.15 K, 35034 kPa | 826.5 ± 0.9
298.15 K, 38020 kPa | 828.3 ± 0.9
298.15 K, 49981 kPa | 835.1 ± 0.9
298.15 K, 57978 kPa | 839.4 ± 1
298.15 K, 60039 kPa | 840.5 ± 1
298.15 K, 62048 kPa | 841.5 ± 1
298.15 K, 66054 kPa | 843.6 ± 1
298.16 K, 906 kPa | 803 ± 0.8
298.16 K, 3037 kPa | 804.7 ± 0.8
298.16 K, 5064 kPa | 806.3 ± 0.8
298.16 K, 7065 kPa | 807.8 ± 0.8
298.16 K, 12017 kPa | 811.4 ± 0.9
298.16 K, 15244 kPa | 813.7 ± 0.9
298.16 K, 34019 kPa | 825.9 ± 0.9
298.16 K, 40026 kPa | 829.5 ± 0.9
298.16 K, 42019 kPa | 830.7 ± 0.9
298.16 K, 44993 kPa | 832.3 ± 0.9
298.16 K, 47933 kPa | 834 ± 0.9
298.16 K, 52047 kPa | 836.3 ± 1
298.16 K, 54969 kPa | 837.8 ± 1
298.16 K, 65037 kPa | 843.1 ± 1
303.15 K, 98 kPa | 798.2 ± 0.8
303.15 K, 290 kPa | 798.3 ± 0.8
303.15 K, 914 kPa | 798.8 ± 0.8
303.15 K, 1019 kPa | 798.9 ± 0.8
303.15 K, 2009 kPa | 799.7 ± 0.8
303.15 K, 3007 kPa | 800.5 ± 0.8
303.15 K, 4968 kPa | 802.1 ± 0.8
303.15 K, 8967 kPa | 805.2 ± 0.8
303.15 K, 17980 kPa | 811.8 ± 0.9
